≈ marks a conversion by molar mass, not a printed value. Read-outs that look alike come from different tables or passages of the source.
What was measured:
E. coli WT RNAP = biological target: T1, E. coli WT RNAP (Escherichia coli, UniProt P0A8V2); assay: biochemical
T1 construct: made in house

M. tuberculosis H37Rv = assay: Minimum bactericidal concentration (MBC, CFU Assay); type: cell-based, Mycobacterium tuberculosis; details: for MBC: Mycobacterium tuberculosis, 168 h, Day 7, M. tuberculosis H37Rv, ≥99% reduction in colony forming units, read-out: MBC99 Day 7 (CFU Assay) MBC99
DPX2 cells = details: for DPX2 Viability @ 6.25 μM: 24 h; for DPX2 Viability @ 25 μM: human
[1] = biological target: T2, E. coli D516V (RIF^R) RNAP (Escherichia coli, UniProt P0A8V2, D516V); assay: biochemical
T2 construct: made in house

VERO cells (ATCC CRL-81) = assay: Vero cell toxicity; type: cell-based; details: Chlorocebus sabaeus, Vero; 72 hours exposure
Protocol: Cytotoxicity for a mammalian cell line was determined by exposing VERO cells (ATCC CRL-81) to serial dilutions of test compounds for 72 hours, followed by addition of resazurin and measurement of fluorescence after 4 hours incubation (Choules, et al., Antimnicrob. Agents Chemother. 2019, 63, e02204-02218).

[2] = biological target: T3, E. coli S531L (RIF^R) RNAP (Escherichia coli, UniProt P0A8V2, S531L); assay: biochemical
T3 construct: made in house

MTB H37Rv ATCC 27294 = assay: MIC, microplate Alamar Blue assay (MABA); type: cell-based, Mycobacterium tuberculosis; details: for MIC: Mycobacterium tuberculosis, MTB H37Rv ATCC 27294, microplate Alamar Blue assay, lowest concentration giving ≥90% reduction in fluorescence, read-out: MIC90 MABA
[3] = CFU Assay MBC99 relative to rifampin (RMP = 1)

## CO[C@H]1/C=C/O[C@@]2(C)Oc3c(C)c(O)c4c(=O)c(c5oc6cccc(OCCCCN7CCN(C)CC7)c6nc-5c4c3C2=O)NC(=O)/C(C)=C\C=C\[C@H](C)[C@H](O)[C@@H](C)[C@@H](O)[C@@H](C)[C@H](OC(C)=O)[C@@H]1C [Compound 5a, (7S,9E,11S,12R,13S,14R,15R,16R,17S,18S,19E,21Z)-2,15,17-Trihydroxy-11-methoxy-3,7,12,14,16,18,22-heptamethyl-32-[4-(4-methylpiperazin-1-yl)butoxy]-6,23,37-trioxo-8,27,38-trioxa-24,34-diazahexacyclo[23.11.1.1^4,7.0^5,36.0^26,35.0^28,33]octatriaconta-1(36)2,4,9,19,21,25,28(33)29,31,34-undecaen-13-yl acetate]
E. coli WT RNAP
  IC50: 0.006 µM
M. tuberculosis H37Rv; [3]
  MBC99 Day 7 (CFU Assay) MBC99 Rel to RMP: 0.77
M. tuberculosis H37Rv
  MBC: 0.1 µM
DPX2 cells
  DPX2 Viability @ 6.25 μM: 87%
  DPX2 Viability @ 25 μM: 47%
[1]
  IC50: 27 µM
VERO cells (ATCC CRL-81)
  IC50: > 8 µM
[2]
  IC50: 790 µM
MTB H37Rv ATCC 27294
  MIC90 MABA Rel to RMP: 3.1
  MIC: 0.092 µM

## CO[C@H]1/C=C/O[C@@]2(C)Oc3c(C)c(O)c4c(=O)c(c5oc6cccc(OCCCCN7CCOCC7)c6nc-5c4c3C2=O)NC(=O)/C(C)=C\C=C\[C@H](C)[C@H](O)[C@@H](C)[C@@H](O)[C@@H](C)[C@H](OC(C)=O)[C@@H]1C [Compound 5b, (7S,9E,11S,12R,13S,14R,15R,16R,17S,18S,19E,21Z)-2,15,17-Trihydroxy-11-methoxy-3,7,12,14,16,18,22-heptamethyl-32-[4-(morpholin-4-yl)butoxy]-6,23,37-trioxo-8,27,38-trioxa-24,34-diazahexacyclo[23.11.1.1^4,7.0^5,36.0^26,35.0^28,33]octatriaconta-1(36)2,4,9,19,21,25,28(33)29,31,34-undecaen-13-yl acetate]
E. coli WT RNAP
  IC50: 0.007 µM
M. tuberculosis H37Rv; [3]
  MBC99 Day 7 (CFU Assay) MBC99 Rel to RMP: 0.38
M. tuberculosis H37Rv
  MBC: 0.05 µM
DPX2 cells
  DPX2 Viability @ 6.25 μM: 81%
  DPX2 Viability @ 25 μM: 45%
[1]
  IC50: 65 µM
VERO cells (ATCC CRL-81)
  IC50: > 8 µM
[2]
  IC50: 390 µM
MTB H37Rv ATCC 27294
  MIC90 MABA Rel to RMP: 0.70
  MIC: 0.021 µM

## CO[C@H]1/C=C/O[C@@]2(C)Oc3c(C)c(O)c4c(=O)c(c5oc6cccc(OCCCCN7CCN(C(=O)OC(C)(C)C)CC7)c6nc-5c4c3C2=O)NC(=O)/C(C)=C\C=C\[C@H](C)[C@H](O)[C@@H](C)[C@@H](O)[C@@H](C)[C@H](OC(C)=O)[C@@H]1C [Compound 5c, Tert-Butyl 4-(4-{[(7S,9E,11S,12R,13S,14R,15R,16R,17S,18S,19E,21Z)-13-(acetyloxy)-2,15,17-trihydroxy-11-methoxy-3,7,12,14,16,18,22-heptamethyl-6,23,37-trioxo-8,27,38-trioxa-24,34-diazahexacyclo[23.11.1.1^4,7.0^5,36.0^26,35.0^28,33]octatriaconta-1(36)2,4,9,19,21,25,28(33)29,31,34-undecaen-32-yl]oxy}butyl)piperazine-1-carboxylate]
E. coli WT RNAP
  IC50: < 0.005 µM
M. tuberculosis H37Rv; [3]
  MBC99 Day 7 (CFU Assay) MBC99 Rel to RMP: 0.77
M. tuberculosis H37Rv
  MBC: 0.1 µM (≈ 0.104 µg/mL)
[1]
  IC50: 22 µM
VERO cells (ATCC CRL-81)
  IC50: 6.2 µM
[2]
  IC50: 300 µM
MTB H37Rv ATCC 27294
  MIC90 MABA Rel to RMP: 0.89
  MIC: 0.024 µM (≈ 0.025 µg/mL)

## CO[C@H]1/C=C/O[C@@]2(C)Oc3c(C)c(O)c4c(=O)c(c5oc6cc(N7CCN(CC(C)C)CC7)cc(OCCCCN7CCOCC7)c6nc-5c4c3C2=O)NC(=O)/C(C)=C\C=C\[C@H](C)[C@H](O)[C@@H](C)[C@@H](O)[C@@H](C)[C@H](OC(C)=O)[C@@H]1C [Compound 6a, (7S,9E,11S,12R,13S,14R,15R,16R,17S,18S,19E,21Z)-2,15,17-Trihydroxy-11-methoxy-3,7,12,14,16,18,22-heptamethyl-30-[4-(2-methylpropyl)piperazin-1-yl]-32-[4-(morpholin-4-yl)butoxy]-6,23,37-trioxo-8,27,38-trioxa-24,34-diazahexacyclo[23.11.1.1^4,7.0^5,36.0^26,35.0^28,33]octatriaconta-1(36)2,4,9,19,21,25,28(33)29,31,34-undecaen-13-yl acetate]
E. coli WT RNAP
  IC50: 0.006 µM
M. tuberculosis H37Rv
  MBC99 Day 7 (CFU Assay) MBC99 Rel to RMP: 0.08
  MBC: 0.01 µM
DPX2 cells
  DPX2 Viability @ 6.25 μM: 102%
  DPX2 Viability @ 25 μM: 86%
[1]
  IC50: 39 µM
VERO cells (ATCC CRL-81)
  IC50: > 8 µM
[2]
  IC50: 80 µM
MTB H37Rv ATCC 27294
  MIC90 MABA Rel to RMP: 0.80
  MIC: 0.092 µM

## CO[C@H]1/C=C/O[C@@]2(C)Oc3c(C)c(O)c4c(=O)c(c5oc6cc(N7CCN(CC(C)C)CC7)cc(OCCCCN7CCN(CCn8ccnc8)CC7)c6nc-5c4c3C2=O)NC(=O)/C(C)=C\C=C\[C@H](C)[C@H](O)[C@@H](C)[C@@H](O)[C@@H](C)[C@H](OC(C)=O)[C@@H]1C [Compound 6b, (7S,9E,11S,12R,13S,14R,15R,16R,17S,18S,19E,21Z)-2,15,17-trihydroxy-32-(4-{4-[2-(1H-imidazol-1-yl)ethyl]piperazin-1-yl}butoxy)-11-methoxy-3,7,12,14,16,18,22-heptamethyl-30-[4-(2-methylpropyl)piperazin-1-yl]-6,23,37-trioxo-8,27,38-trioxa-24,34-diazahexacyclo[23.11.1.1^4,7.0^5,36.0^26,35.0^28,33]octatriaconta-1(36)2,4,9,19,21,25,28(33)29,31,34-undecaen-13-yl acetate]
E. coli WT RNAP
  IC50: 0.006 µM
M. tuberculosis H37Rv; [3]
  MBC99 Day 7 (CFU Assay) MBC99 Rel to RMP: 0.23
M. tuberculosis H37Rv
  MBC: 0.03 µM
DPX2 cells
  DPX2 Viability @ 6.25 μM: 120%
  DPX2 Viability @ 25 μM: 57%
[1]
  IC50: 51 µM
VERO cells (ATCC CRL-81)
  IC50: > 8 µM
[2]
  IC50: 52 µM
MTB H37Rv ATCC 27294
  MIC90 MABA Rel to RMP: 1.6
  MIC: 0.021 µM

## CO[C@H]1/C=C/O[C@@]2(C)Oc3c(C)c(O)c4c(=O)c(c5oc6cc(N7CCN(C)CC7)cc(OCCCCN7CCN(C(=O)Cn8ccnc8)CC7)c6nc-5c4c3C2=O)NC(=O)/C(C)=C\C=C\[C@H](C)[C@H](O)[C@@H](C)[C@@H](O)[C@@H](C)[C@H](OC(C)=O)[C@@H]1C [Compound 6c, (7S,9E,11S,12R,13S,14R,15R,16R,17S,18S,19E,21Z)-2,15,17-Trihydroxy-32-(4-{4-[2-(1H-imidazol-1-yl)acetyl]piperazin-1-yl}butoxy)-11-methoxy-3,7,12,14,16,18,22-heptamethyl-30-(4-methylpiperazin-1-yl)-6,23,37-trioxo-8,27,38-trioxa-24,34-diazahexacyclo[23.11.1.1^4,7.0^5,36.0^26,35.0^28,33]octatriaconta-1(36)2,4,9,19,21,25,28(33)29,31,34-undecaen-13-yl acetate]
E. coli WT RNAP
  IC50: 0.01 µM
M. tuberculosis H37Rv; [3]
  MBC99 Day 7 (CFU Assay) MBC99 Rel to RMP: 0.38
M. tuberculosis H37Rv
  MBC: 0.05 µM
DPX2 cells
  DPX2 Viability @ 6.25 μM: 108%
  DPX2 Viability @ 25 μM: 111%
[1]
  IC50: 12 µM
VERO cells (ATCC CRL-81)
  IC50: 53 µM
[2]
  IC50: 230 µM
MTB H37Rv ATCC 27294
  MIC90 MABA Rel to RMP: 2.7
  MIC: 0.039 µM

## CO[C@H]1/C=C/O[C@@]2(C)Oc3c(C)c(O)c4c(=O)c(c5oc6cc(N7CCN(CC(C)C)CC7)cc(OCCCCN7CCN(C(=O)Cn8ccnc8)CC7)c6nc-5c4c3C2=O)NC(=O)/C(C)=C\C=C\[C@H](C)[C@H](O)[C@@H](C)[C@@H](O)[C@@H](C)[C@H](OC(C)=O)[C@@H]1C [Compound 6d, (7S,9E,11S,12R,13S,14R,15R,16R,17S,18S,19E,21Z)-2,15,17-Trihydroxy-32-(4-{4-[2-(1H-imidazol-1-yl)acetyl]piperazin-1-yl}butoxy)-11-methoxy-3,7,12,14,16,18,22-heptamethyl-30-[4-(2-methylpropyl)piperazin-1-yl]-6,23,37-trioxo-8,27,38-trioxa-24,34-diazahexacyclo[23.11.1.1^4,7.0^5,36.0^26,35.0^28,33]octatriaconta-1(36)2,4,9,19,21,25,28,30,32,34-undecaen-13-yl acetate]
E. coli WT RNAP
  IC50: 0.008 µM
M. tuberculosis H37Rv; [3]
  MBC99 Day 7 (CFU Assay) MBC99 Rel to RMP: 0.23
M. tuberculosis H37Rv
  MBC: 0.03 µM
DPX2 cells
  DPX2 Viability @ 6.25 μM: 104%
  DPX2 Viability @ 25 μM: 90%
[1]
  IC50: 59 µM
VERO cells (ATCC CRL-81)
  IC50: > 8 µM
[2]
  IC50: 93 µM
MTB H37Rv ATCC 27294
  MIC90 MABA Rel to RMP: 1.3
  MIC: 0.024 µM

## CO[C@H]1/C=C/O[C@@]2(C)Oc3c(C)c(O)c4c(=O)c(c5oc6cc(N7CCN(CC(C)C)CC7)cc(OCc7cccc(CN8CCN(C(=O)Cn9ccnc9)CC8)c7)c6nc-5c4c3C2=O)NC(=O)/C(C)=C\C=C\[C@H](C)[C@H](O)[C@@H](C)[C@@H](O)[C@@H](C)[C@H](OC(C)=O)[C@@H]1C [Compound 12c, (7S,9E,11S,12R,13S,14R,15R,16R,17S,18S,19E,21Z)-2,15,17-Trihydroxy-32-{[3-({4-[2-(1H-imidazol-1-yl)acetyl]piperazin-1-yl}methyl)phenyl]methoxy}-11-methoxy-3,7,12,14,16,18,22-heptamethyl-30-[4-(2-methylpropyl)piperazin-1-yl]-6,23,37-trioxo-8,27,38-trioxa-24,34-diazahexacyclo[23.11.1.1^4,7.0^5,36.0^26,35.0^28,33]octatriaconta-1(36)2,4,9,19,21,25,28,30,32,34-undecaen-13-yl acetate]
E. coli WT RNAP
  IC50: 0.014 µM
M. tuberculosis H37Rv; [3]
  MBC99 Day 7 (CFU Assay) MBC99 Rel to RMP: <0.08
M. tuberculosis H37Rv
  MBC: < 0.02 µM
DPX2 cells
  DPX2 Viability @ 6.25 μM: 107%
  DPX2 Viability @ 25 μM: 95%
[1]
  IC50: 17 µM
VERO cells (ATCC CRL-81)
  IC50: > 8 µM
[2]
  IC50: 66 µM
MTB H37Rv ATCC 27294
  MIC90 MABA Rel to RMP: 0.12
  MIC: 0.0048 µM

Reference: patent publication US20250188092A1, “RIFAMYCIN ANALOGS” (THE REGENTS OF THE UNIVERSITY OF MICHIGAN, priority 2021, published 2025)
